Assay results from the RepoRT retention time repository.

Assay: RP, Waters ACQUITY UPLC HSS T3, 0.1 mL/min; A: water + 0.01% formic acid; B: acetonitrile + 0.01% formic acid; gradient (min/%B) 0/10 38/45 45/45 55/0 60/0
Conditions: stereoisomer not certain

SMILES	LC retention time
COc1cc(OC)nc(NC(=O)NS(=O)(=O)N(C)S(C)(=O)=O)n1 [Amidosulfuron]	21.2 min
CCNc1nc(NC(C)C)nc(SC)n1 [Ametryn]	20.1 min
N#CN=C1SCCN1Cc1ccc(Cl)nc1 [Thiacloprid]	12.2 min
N#CCNC(=O)c1cnccc1C(F)(F)F [Flonicamid]	7.52 min
CCOP(=S)(OCC)Oc1cc(C)nc(C(C)C)n1 [Diazinon]	43.4 min
NC(=O)N1c2ccccc2C=Cc2ccccc21 [Carbamazepine]	18 min
CCCCCC(O)C=CC1C(O)CC(O)C1CC=CCCCC(=O)O (stereo unspecified) [Prostaglandin F2a]	25.6 min
CCCCCC(O)C=CC1C(=O)CC(O)C1CC=CCCCC(=O)O (stereo unspecified) [Prostaglandin D2]	27.6 min
COCc1cnc(C2=NC(C)(C(C)C)C(=O)N2)c(C(=O)O)c1 (stereo unspecified) [Imazamox]	9.34 min
COP(=S)(OC)Oc1nc(Cl)c(Cl)cc1Cl [Chlorpyrifos-methyl]	43.9 min
CC(C)C1(C)N=C(c2nc3ccccc3cc2C(=O)O)NC1=O (stereo unspecified) [Imazaquin]	16.3 min
Fc1ccc(C2CCNCC2COc2ccc3c(c2)OCO3)cc1 (stereo unspecified) [Paroxetine]	18.3 min
CC12CCC3C(CC=C4CC(O)CCC43C)C1CCC2=O (stereo unspecified) [Dehydroepiandrosterone]	31.7 min
NC(Cc1c[nH]c2ccccc12)C(=O)O (stereo unspecified) [Tryptophan]	5.4 min
Cc1ccc(NC(=O)N(C)C)cc1Cl [Chlortoluron]	20.5 min
CC(=O)C1CCC2C3CCC4CC(O)CCC4(C)C3CCC12C (stereo unspecified) [Allopregnanolone]	43.9 min
Cc1cnc2c(C(=O)O)c(Cl)ccc2c1 [Quinmerac]	8.87 min
COc1ccc(C(=O)c2ccccc2)c(O)c1 [Oxybenzone]	40.6 min
CC(C)(C)C(=O)OCOC(=O)C1N2C(=O)C(N=CN3CCCCCC3)C2SC1(C)C (stereo unspecified) [Pivmecillinam]	26.4 min
Cc1cc(Cl)ccc1OCC(=O)O [2,4-mcpa]	17.2 min
CS(=O)(=O)c1ccc(C(=O)C2C(=O)CCCC2=O)c(Cl)c1 [Sulcotrione]	18.6 min
CS(=O)(=O)c1cc(C(F)(F)F)ccc1C(=O)c1cnoc1C1CC1 [Isoxaflutole]	35.3 min
CNC(=N[N+](=O)[O-])NCc1cnc(Cl)s1 [Clothianidin]	7.99 min
N[C@@H](Cc1cc(I)c(Oc2cc(I)c(O)c(I)c2)c(I)c1)C(=O)O [L-thyroxine]	25.6 min
CC(=O)OCC[N+](C)(C)C [Acetylcholine]	1.39 min
CC(=O)C1CCC2C3CC=C4CC(O)CCC4(C)C3CCC12C (stereo unspecified) [Pregnenolone]	41.8 min
